Measurements: ChEMBL document CHEMBL1201862, “PubChem BioAssay data set” (2004)
Active and inactive are the calls of the source.

Tests used:
Coagulation factor XII = molecular target: T1, Coagulation factor XII (Homo sapiens, UniProt P00748); assay type: functional;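 further: activated factor XIIa alpha cleaving a fluorogenic AMC peptide substrate; inhibitor potency from loss of enzyme activity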
T1 sequence (P00748 whole entry): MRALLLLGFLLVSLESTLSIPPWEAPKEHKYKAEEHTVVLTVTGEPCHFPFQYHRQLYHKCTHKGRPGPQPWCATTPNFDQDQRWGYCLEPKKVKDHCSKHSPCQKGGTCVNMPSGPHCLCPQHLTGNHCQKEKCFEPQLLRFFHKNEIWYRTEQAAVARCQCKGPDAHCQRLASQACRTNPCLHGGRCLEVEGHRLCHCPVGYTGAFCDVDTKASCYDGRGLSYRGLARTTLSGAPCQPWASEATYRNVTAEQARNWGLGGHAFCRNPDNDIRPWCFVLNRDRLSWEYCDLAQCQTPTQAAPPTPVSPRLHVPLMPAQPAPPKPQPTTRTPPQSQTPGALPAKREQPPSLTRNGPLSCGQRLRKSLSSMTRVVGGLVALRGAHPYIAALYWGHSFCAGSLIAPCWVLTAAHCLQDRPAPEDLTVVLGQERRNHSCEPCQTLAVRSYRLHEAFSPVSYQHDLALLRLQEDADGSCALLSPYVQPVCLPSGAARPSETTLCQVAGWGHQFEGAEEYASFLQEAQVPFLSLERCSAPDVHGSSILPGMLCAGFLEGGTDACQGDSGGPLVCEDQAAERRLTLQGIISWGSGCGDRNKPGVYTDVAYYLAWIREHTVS

[1] = molecular target: T2, Short transient receptor potential channel 4 (Mus musculus, UniProt Q9QUQ5); experiment: mouse TRPC4 channel activators, dose response, cell-based, HEK293 TRPC4/mu-opioid, Fluo-4 calcium (AID 434937); assay type: functional
T2 sequence (Q9QUQ5 whole entry): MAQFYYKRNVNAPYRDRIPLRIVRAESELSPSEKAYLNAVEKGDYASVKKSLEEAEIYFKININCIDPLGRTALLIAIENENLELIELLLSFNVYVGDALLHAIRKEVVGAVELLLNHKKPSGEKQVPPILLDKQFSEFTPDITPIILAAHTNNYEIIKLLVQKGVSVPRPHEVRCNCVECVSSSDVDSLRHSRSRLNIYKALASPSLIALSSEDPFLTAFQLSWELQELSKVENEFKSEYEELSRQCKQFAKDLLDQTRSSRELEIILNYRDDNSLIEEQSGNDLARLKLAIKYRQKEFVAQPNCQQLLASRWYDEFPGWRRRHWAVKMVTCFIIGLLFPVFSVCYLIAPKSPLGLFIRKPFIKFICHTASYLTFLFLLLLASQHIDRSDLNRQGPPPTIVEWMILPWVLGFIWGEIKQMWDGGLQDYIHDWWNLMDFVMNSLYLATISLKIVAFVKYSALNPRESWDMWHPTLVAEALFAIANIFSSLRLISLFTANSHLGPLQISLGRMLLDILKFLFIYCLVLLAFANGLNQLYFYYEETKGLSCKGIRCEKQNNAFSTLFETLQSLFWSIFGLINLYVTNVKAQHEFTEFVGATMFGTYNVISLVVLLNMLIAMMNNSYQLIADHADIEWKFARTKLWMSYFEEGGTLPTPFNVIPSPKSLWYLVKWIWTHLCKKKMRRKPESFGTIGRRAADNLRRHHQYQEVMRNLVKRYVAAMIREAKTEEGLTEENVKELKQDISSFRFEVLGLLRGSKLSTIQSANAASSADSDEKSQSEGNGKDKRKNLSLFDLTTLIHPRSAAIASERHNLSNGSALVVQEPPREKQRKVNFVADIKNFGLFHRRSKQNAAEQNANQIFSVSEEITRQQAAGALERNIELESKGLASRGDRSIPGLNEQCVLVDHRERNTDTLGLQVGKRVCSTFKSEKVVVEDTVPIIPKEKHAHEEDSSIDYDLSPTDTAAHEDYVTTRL

Aminopeptidase N = molecular target: T3, Aminopeptidase N (Plasmodium falciparum FcB1/Columbia, UniProt O96935); experiment: P. falciparum M1AAP inhibitors, biochemical, fluorogenic H-Leu-NHMec substrate, 1536-well (AID 1445); parameters: species or system Plasmodium falciparum 3D7, 3D7
T3 sequence (O96935 whole entry): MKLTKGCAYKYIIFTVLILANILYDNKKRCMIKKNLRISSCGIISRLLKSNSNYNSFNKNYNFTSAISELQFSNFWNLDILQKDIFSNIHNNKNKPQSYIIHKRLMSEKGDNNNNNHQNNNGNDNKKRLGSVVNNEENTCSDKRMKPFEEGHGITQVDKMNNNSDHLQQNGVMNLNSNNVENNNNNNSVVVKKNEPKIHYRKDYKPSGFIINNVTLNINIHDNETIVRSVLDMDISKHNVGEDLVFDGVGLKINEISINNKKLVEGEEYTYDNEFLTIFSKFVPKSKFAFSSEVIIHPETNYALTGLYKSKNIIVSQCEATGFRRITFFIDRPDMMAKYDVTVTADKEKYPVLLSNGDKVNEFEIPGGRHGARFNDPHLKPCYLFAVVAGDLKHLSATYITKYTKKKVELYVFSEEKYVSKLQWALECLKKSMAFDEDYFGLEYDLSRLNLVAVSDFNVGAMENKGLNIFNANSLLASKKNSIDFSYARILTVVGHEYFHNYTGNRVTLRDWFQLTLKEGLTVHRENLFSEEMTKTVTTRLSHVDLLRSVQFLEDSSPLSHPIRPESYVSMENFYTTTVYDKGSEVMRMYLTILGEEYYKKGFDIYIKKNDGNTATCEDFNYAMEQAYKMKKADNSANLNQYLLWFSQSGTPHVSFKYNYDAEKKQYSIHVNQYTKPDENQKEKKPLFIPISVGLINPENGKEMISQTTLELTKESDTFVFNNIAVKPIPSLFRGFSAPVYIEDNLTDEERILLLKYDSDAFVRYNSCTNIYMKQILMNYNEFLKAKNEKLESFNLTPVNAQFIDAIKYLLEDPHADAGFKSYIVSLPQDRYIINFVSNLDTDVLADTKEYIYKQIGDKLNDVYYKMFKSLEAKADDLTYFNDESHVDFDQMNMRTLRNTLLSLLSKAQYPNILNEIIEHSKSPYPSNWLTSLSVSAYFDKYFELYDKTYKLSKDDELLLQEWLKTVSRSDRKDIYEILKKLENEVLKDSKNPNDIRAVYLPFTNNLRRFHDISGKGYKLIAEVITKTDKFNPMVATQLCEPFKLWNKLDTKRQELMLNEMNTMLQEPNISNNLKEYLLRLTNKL

cells [2] = assay type: functional, cell-based
cells [3] = assay type: functional, cell-based; remark: listed apart in the source
[4] = molecular target: T4, RNA-binding protein pos-1 (Caenorhabditis elegans, UniProt G5EF15); experiment: inhibitors of POS-1/mex-3 RNA binding, dose response, biochemical, fluorescence polarization (AID 1964);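 further: purified POS-1 fused to maltose binding protein made in E. coli; potency of compounds blocking POS-1 binding to fluorescent RNA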
T4 sequence (G5EF15 whole entry): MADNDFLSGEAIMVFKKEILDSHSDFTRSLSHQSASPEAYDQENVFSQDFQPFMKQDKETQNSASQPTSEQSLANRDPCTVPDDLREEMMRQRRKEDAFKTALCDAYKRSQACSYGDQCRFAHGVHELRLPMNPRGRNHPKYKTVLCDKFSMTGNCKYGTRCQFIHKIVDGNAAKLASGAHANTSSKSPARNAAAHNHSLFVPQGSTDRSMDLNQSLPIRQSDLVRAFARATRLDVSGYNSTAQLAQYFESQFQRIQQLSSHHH

[5] = molecular target: T5, Zinc finger protein mex-5 (Caenorhabditis elegans, UniProt Q9XUB2); experiment: MEX-5/TCR-2 RNA interaction inhibitors, dose response, biochemical, C. elegans, fluorescence polarization (AID 1960)
T5 sequence (Q9XUB2 whole entry): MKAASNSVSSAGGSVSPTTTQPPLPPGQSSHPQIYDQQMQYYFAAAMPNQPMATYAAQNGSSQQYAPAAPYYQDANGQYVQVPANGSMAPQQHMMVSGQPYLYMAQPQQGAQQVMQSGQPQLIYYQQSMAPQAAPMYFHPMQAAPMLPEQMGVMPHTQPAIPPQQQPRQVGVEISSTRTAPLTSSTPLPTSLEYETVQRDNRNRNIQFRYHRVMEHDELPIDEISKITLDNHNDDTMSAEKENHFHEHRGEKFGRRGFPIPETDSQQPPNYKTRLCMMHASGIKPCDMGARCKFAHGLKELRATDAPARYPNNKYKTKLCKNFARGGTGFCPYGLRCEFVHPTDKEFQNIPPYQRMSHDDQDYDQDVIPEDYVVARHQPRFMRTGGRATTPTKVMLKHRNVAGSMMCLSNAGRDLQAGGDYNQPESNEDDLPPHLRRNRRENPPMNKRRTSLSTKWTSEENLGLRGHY

[6] = inhibitors of HIV Env-driven cell fusion, dose response, cherry-pick (AID 652057); assay type: functional, cell-based
[7] = CEM21 lymphoblast cell cytotoxicity, dose response, cytotoxicity control for viral fusion inhibitor project, CellTiter-Glo luminescence, cherry-picked (AID 652042); assay type: functional, cell-based;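 further: potency for signal decrease meaning cytotoxicity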
[8] = ZM109 Env clade C HIV-1 fusion inhibitors, dose response, HeLa effector, CEM target cells, luciferase, cherry-pick (AID 652058); assay type: functional, cell-based
[9] = off-target signal loss in HeLa-CEM21 co-culture – HeLa F-luc CTL cells, cherry-picked, counter-screen for HIV-1 Env fusion inhibitor project, dose response (AID 652040); assay type: functional, cell-based;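 further: potency for signal decrease marking cytotoxic or nonspecific inhibition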
[10] = inhibitors of clade B AD8 Env fusion, dose response, cell-based, cherry-pick (AID 652062); assay type: functional;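 further: luciferase signal from cell-cell fusion driven by HIV-1 clade B AD8 Env; potency is for inhibitors of fusion seen as a drop in luminescence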
[11] = insulin promoter down-regulators in MIN6 cells, imaging, high-content screening, mouse beta cells (AID 1628); assay type: functional
[12] = test system: Streptococcus sp. 'group A'; experiment: growth inhibition of control SK(-) GAS strain, dose response, counter-screen for streptokinase expression inhibitor project, luminescence, kanamycin, BacTiterGlo, confirmation (AID 1900); assay type: functional, organism-based
[13] = cytotoxicity in MIN6 insulinoma cells, dose response, cytotoxicity control, cell-based, mouse insulinoma (AID 2122); assay type: functional;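 further: confirmatory high-throughput counterscreen run to flag cytotoxic compounds; mouse MIN-6 beta cells carrying an insulin promoter eGFP reporter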
Streptococcus = experiment: Group A Streptococcus viability loss, dose response, counter-screen for streptokinase expression inhibitor project, luminescence, BacTiterGlo (AID 1915); assay type: functional, organism-based;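 further: potency for reduction of bacterial viability or growth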
Streptokinase A = molecular target: T6, Streptokinase A (Streptococcus pyogenes serotype M1, UniProt P10520); experiment: S. pyogenes streptokinase expression inhibitors, potency, dose response, plasminogen activation absorbance, OD405 (AID 1914); assay type: functional, Streptococcus pyogenes M1 GAS;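 further: secreted streptokinase activity via plasminogen activation per viability signal from cell pellet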
T6 sequence (P10520 whole entry): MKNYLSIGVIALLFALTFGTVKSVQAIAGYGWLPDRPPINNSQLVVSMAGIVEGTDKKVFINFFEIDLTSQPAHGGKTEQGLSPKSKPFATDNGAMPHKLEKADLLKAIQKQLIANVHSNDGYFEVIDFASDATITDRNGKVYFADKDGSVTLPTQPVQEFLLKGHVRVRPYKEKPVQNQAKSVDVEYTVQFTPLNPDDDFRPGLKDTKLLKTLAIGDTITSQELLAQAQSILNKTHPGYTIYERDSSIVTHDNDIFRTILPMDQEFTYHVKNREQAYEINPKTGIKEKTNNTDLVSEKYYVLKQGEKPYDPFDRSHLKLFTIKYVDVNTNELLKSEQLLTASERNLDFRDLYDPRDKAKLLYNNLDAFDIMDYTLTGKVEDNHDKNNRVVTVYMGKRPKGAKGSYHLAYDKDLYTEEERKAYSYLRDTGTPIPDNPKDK

COC(=O)c1sccc1NC(=O)/C=C/c1c(Cl)cccc1Cl
IC50 (Coagulation factor XII): > 50 µM (inactive)

CN(C)C(CNC(=O)c1cccc(S(=O)(=O)N(C)C)c1)c1ccccc1 (configuration not stated)
EC50 [1]: 0.299 µM (active)

Nc1nc2nc(-c3cccs3)cc(C(F)(F)F)n2n1
IC50 (Aminopeptidase N): 61.4 µM (active) | EC50 (cells [2]): > 350 µM (not active) | EC50 (cells [3]): > 350 µM (not active)

O=C(O)c1cc(-c2ccc(/C=N/Nc3ccc([N+](=O)[O-])cn3)o2)ccc1Cl
IC50 (Aminopeptidase N): 12.7 µM (active) | EC50 [4]: 31 µM (active) | EC50 [5]: 6.29 µM (active)

CN(C)C=O.Cc1ccc(-c2cc(-c3nnc(S)o3)c3ccccc3n2)cc1
IC50 (Aminopeptidase N): 35.5 µM (active)

O=[N+]([O-])c1ccc(N2CCNCC2)c2ncccc12
EC50 [1]: 0.0373 µM (active)

Cc1ccc(S(=O)(=O)N(CC(=O)NCCC2=CCCCC2)Cc2ccccc2)cc1
IC50 (Coagulation factor XII): > 50 µM (inactive) | AC50 [6]: 5.01 µM (active) | AC50 [7]: 41.1 µM (active) | AC50 [8]: 10.7 µM (active) | AC50 [9]: 7.25 µM (active) | AC50 [10]: 10.2 µM (active)

CN(C)c1ccc(C(=O)NN2C(=O)c3ccccc3C2=O)cc1
IC50 (Coagulation factor XII): > 50 µM (inactive)

Cc1sc2nc(-c3ccccn3)nc(O)c2c1-c1ccccc1
IC50 [11]: 4.11 µM (active) | EC50 [12]: 1.25 µM (active) | IC50 [13]: 5.43 µM (active) | EC50 (Streptococcus): 23.9 µM (active)

COc1cc(OC)cc(C(=O)NC(=S)NNC(=O)Cc2cccs2)c1
EC50 [12]: 0.814 µM (active) | EC50 (Streptokinase A): > 150 µM (not active) | EC50 (Streptococcus): 11.6 µM (active) | EC50 [1]: 10.6 µM (active)

Cc1cc(O)nc(N/N=C/c2cc(C)n(CC(F)(F)F)c2C)n1
IC50 [11]: 2 µM (active) | IC50 [13]: 11.2 µM (inactive)
